Experimental data as given in patent US20090216029A1, “PROCESS FOR THE PRODUCTION OF ATORVASTATIN CALCIUM IN AMORPHOUS FORM” (priority 2008, published 2009).
Counter-ions that a name gives are not always drawn.

Conditions: 25° C./60% relative humidity for 3 months
Experimental: • HPLC method: • Column: Kromasil C18, 250×4.6 mm, 5 μm • Mobile phase: • A: 388.5 ml of acetonitrile+31.5 ml of tetrahydrofuran++580 ml of 0.05 molar ammonium dihydrogen orthophosphate solution in water • B: 92.5 ml of acetonitrile+7.5 ml of tetrahydrofuran+300 of methanol++100 ml of 0.05 molar ammonium dihydrogen orthophosphate solution in water • Gradient:

CC(C)c1c(C(=O)Nc2ccccc2)c(-c2ccccc2)c(-c2ccc(F)cc2)n1CC[C@@H](O)C[C@@H](O)CC(=O)O (relative stereo) [amorphous atorvastatin calcium, [R—(R*,R*)]-2-(4-fluorophenyl)-β,δ-dihydroxy-5-(1-methylethyl)-3-phenyl-4-[(phenylamino)carbonyl]-1H-pyrrole-1-heptanoic acid, calcium salt (2:1)]
Total impurities and/or degradants after storage: not more than 1.0%
